Where no end group is shown, it is not given here.
Columns and labels:
[1] = test system: DSS-induced colitis in the mouse; assay: 10-day DSS-induced colitis, Disease Activity Index (Example 5); type: in vivo
Experimental: Animals were divided into 5 experimental groups.
Colitis was induced in mice by supplementing their drinking water with DSS 2% for 7 days.
Daily clinical assessment of DSS-treated animals was carried out, with the calculation of a validated clinical Disease Activity Index (DAI) ranging from 0 to 4 according to the following parameters: stool consistency, presence or absence of rectal bleeding and weight loss:
Bodyweight loss was calculated as the percent difference between the original bodyweight (Day 1) and the actual bodyweight on each experimental day (2-10).
The appearance of diarrhoea is defined as mucus/faecal material adherent to anal fur. Rectal bleeding is defined as diarrhoea containing visible blood/mucus or gross rectal bleeding. The maximum score of the DAI each day is 12.

[2] = test system: TNF production from human peripheral blood mononuclear cells (PBMC); assay: TNF production from human PBMC, Cytometric Bead Array; type: cell-based
Experimental: (§1) Peripheral blood was drawn from healthy volunteers (with approval from the relevant ethical committee in Denmark). Heparinized blood was diluted 1/1 v/v with RPMI and were subjected to Ficoll density centrifugation within 2 h of drawing. Plasma was collected from the top from individual donors and was kept on ice until it was used at 2% in the culture medium (autologous culture medium). Isolated PBMC were resuspended in autologous culture medium and seeded in 96-well culture plates with 255.000 cells per well in a total of 200 μl. […] The concentrations used for stimulation were optimized on 3 different donors in initial experiments, for LPS two different concentrations were used to be sure to be on a cytokine level that is possible to modulate. In some experiments PBMC were treated with Dexamethason and Indomethacin alone and together with LPS or LTA as a control on downregulation of inflammatory cytokines. The supernatants were collected after incubation at 37° C. for 24 hours, and stored at −80° C. until cytokine measurement. Viability was measured by Alamar Blue (Biosource, DALL 1100) in all experiments and in some cases also by MTS (Promega) according to manufacturer's instruction and was in some experiments also judged by counting of the cells by a Nucleocounter.
(§2) Cytokine production in supernatants was measured by flow cytometry with a human inflammation cytometric bead array (CBA) according to manufacturer's instructions (BD) on a FACSarray flow cytometer. The following cytokines were measured: IL-8, IL-1β, IL-10, TNF, IL-12 p70, IL-6. In some experiments, cytokines were measured by ELISA kits from R&D systems (IL-10, TNF-α, IL-1β) according to the manufacturer' instruction.

PBMC = PBMC viability, Alamar Blue; type: cell-based, human
Experimental: as §1

[3] = test system: IL-1β secretion from PBMC; assay: IL-1β secretion from PBMC, ELISA; type: cell-based, human
Experimental: as §1, §2
In Tables 6, 7 and 8, supernatants from another donor were analysed for cytokines by ELISA instead of by a cytometric bead array by flowcytometry and here the same were observed, although the sensitivity of the assay is lower and the detection limit much higher and therefore the effects were not as significant.

[4] = LPS 0.6 ng/ml, test compound 1 μg/ml, Table 16
[5] = LPS 0.6 ng/ml, test compound 10 μg/ml, Table 16
[6] = LPS 0.6 ng/ml, test compound 40 μg/ml, Table 16
[7] = LPS 20 ng/ml, test compound 1 μg/ml, Table 16
[8] = LPS 20 ng/ml, test compound 10 μg/ml, Table 16
[9] = LPS 20 ng/ml, test compound 40 μg/ml, Table 16

hBD2: human beta defensin 2, SEQ ID NO:2; produced recombinantly in E. coli (Example 1); hBD2 of Tables 16-18 was prepared by chemical synthesis (GIGDPVTCLKSGAICHPVFCPRRYKQIGTCGLPGTKCCKKP; ends and bridges not checked; cysteine pairing not given here; listed as Homo sapiens)
DAI score ([1]; 0.1 mg/kg i.v. daily, Day 1): 0.00 | DAI score ([1]; 0.1 mg/kg i.v. daily, Day 2): 0.20 | DAI score ([1]; 0.1 mg/kg i.v. daily, Day 3): 0.80 | DAI score ([1]; 0.1 mg/kg i.v. daily, Day 4): 2.90 | DAI score ([1]; 0.1 mg/kg i.v. daily, Day 5): 2.80 | DAI score ([1]; 0.1 mg/kg i.v. daily, Day 6): 3.20 | DAI score ([1]; 1 mg/kg i.v. daily, Day 1): 0.00 | DAI score ([1]; 1 mg/kg i.v. daily, Day 2): 0.00 | DAI score ([1]; 1 mg/kg i.v. daily, Day 3): 0.22 | DAI score ([1]; 1 mg/kg i.v. daily, Day 4): 2.22 | DAI score ([1]; 1 mg/kg i.v. daily, Day 5): 2.44 | DAI score ([1]; 1 mg/kg i.v. daily, Day 6): 2.89 | DAI score ([1]; 1 mg/kg i.v. daily, Day 7): 2.22 | DAI score ([1]; 1 mg/kg i.v. daily, Day 8): 3.67 | DAI score ([1]; 1 mg/kg i.v. daily, Day 9): 5.22 | DAI score ([1]; 10 mg/kg i.v. daily, Day 1): 0.00 | DAI score ([1]; 10 mg/kg i.v. daily, Day 2): 0.60 | DAI score ([1]; 10 mg/kg i.v. daily, Day 3): 1.00 | DAI score ([1]; 10 mg/kg i.v. daily, Day 4): 3.67 | DAI score ([1]; 10 mg/kg i.v. daily, Day 5): 3.11 | DAI score ([1]; 10 mg/kg i.v. daily, Day 6): 3.22 | DAI score ([1]; 10 mg/kg i.v. daily, Day 7): 2.11 | DAI score ([1]; 10 mg/kg i.v. daily, Day 8): 4.11 | DAI score ([1]; 10 mg/kg i.v. daily, Day 9): 6.78 | DAI score ([1]; 10 mg/kg i.v. daily, Day 10): 7.33 | TNF ([2]; LPS 0.6 ng/ml, hBD2 1 μg/ml, Table 1): 944.8 pg/mL | TNF ([2]; LPS 0.6 ng/ml, hBD2 1 μg/ml, Table 11): 170 pg/mL | TNF ([2]; LPS 0.6 ng/ml, hBD2 10 μg/ml, Table 1): 1076.4 pg/mL | TNF ([2]; LPS 0.6 ng/ml, hBD2 10 μg/ml, Table 11): 200 pg/mL | TNF ([2]; LPS 0.6 ng/ml, hBD2 100 μg/ml, Table 1): 634.2 pg/mL | TNF ([2]; LPS 0.6 ng/ml, hBD2 100 μg/ml, Table 11): 0 pg/mL | TNF ([2]; LPS 0.6 ng/ml, hBD2 1000 μg/ml, Table 11): 3 pg/mL | TNF [2, 4]: 242 pg/mL | TNF % of control [2, 4]: 33% | TNF [2, 5]: 304 pg/mL | TNF % of control [2, 5]: 42% | TNF [2, 6]: 176 pg/mL | TNF % of control [2, 6]: 24% | TNF ([2]; LPS 20 ng/ml, hBD2 1 μg/ml, Table 1): 1526.9 pg/mL | TNF ([2]; LPS 20 ng/ml, hBD2 1 μg/ml, Table 11): 6240 pg/mL | TNF ([2]; LPS 20 ng/ml, hBD2 10 μg/ml, Table 1): 1306.6 pg/mL | TNF ([2]; LPS 20 ng/ml, hBD2 10 μg/ml, Table 11): 350 pg/mL | TNF ([2]; LPS 20 ng/ml, hBD2 100 μg/ml, Table 1): 1733.9 pg/mL | TNF ([2]; LPS 20 ng/ml, hBD2 100 μg/ml, Table 11): 38 pg/mL | TNF ([2]; LPS 20 ng/ml, hBD2 1000 μg/ml, Table 11): 0 pg/mL | TNF [2, 7]: 411 pg/mL | TNF % of control [2, 7]: 19% | TNF [2, 8]: 132 pg/mL | TNF % of control [2, 8]: 6% | TNF [2, 9]: 52 pg/mL | TNF % of control [2, 9]: 2% | TNF ([2]; LPS 20 ng/ml, treatment 1 μg/ml, Table 21): 633 pg/mL | TNF ([2]; LPS 20 ng/ml, treatment 10 μg/ml, Table 21): 359 pg/mL | TNF ([2]; LPS 20 ng/ml, treatment 100 μg/ml, Table 21): 342 pg/mL | TNF ([2]; LTA 1.25 μg/ml, hBD2 1 μg/ml, Table 1): 711.5 pg/mL | TNF ([2]; LTA 1.25 μg/ml, hBD2 1 μg/ml, Table 11): 3900 pg/mL | TNF ([2]; LTA 1.25 μg/ml, hBD2 10 μg/ml, Table 1): 494.7 pg/mL | TNF ([2]; LTA 1.25 μg/ml, hBD2 10 μg/ml, Table 11): 2330 pg/mL | TNF ([2]; LTA 1.25 μg/ml, hBD2 100 μg/ml, Table 1): 375.2 pg/mL | TNF ([2]; LTA 1.25 μg/ml, hBD2 100 μg/ml, Table 11): 1150 pg/mL | TNF ([2]; LTA 1.25 μg/ml, hBD2 1000 μg/ml, Table 11): 110 pg/mL | TNF ([2]; Medium, hBD2 1 μg/ml, Table 1): 4.2 pg/mL | TNF ([2]; Medium, hBD2 1 μg/ml, Table 9): 3.4 pg/mL | TNF ([2]; Medium, hBD2 1 μg/ml, Table 11): 0 pg/mL | TNF ([2]; Medium, hBD2 10 μg/ml, Table 1): 2.6 pg/mL | TNF ([2]; Medium, hBD2 10 μg/ml, Table 9): 3.7 pg/mL | TNF ([2]; Medium, hBD2 10 μg/ml, Table 11): 0 pg/mL | TNF ([2]; Medium, hBD2 100 μg/ml, Table 1): 2.9 pg/mL | TNF ([2]; Medium, hBD2 100 μg/ml, Table 9): 3.6 pg/mL | TNF ([2]; Medium, hBD2 100 μg/ml, Table 11): 0 pg/mL | TNF ([2]; Medium, hBD2 1000 μg/ml, Table 11): 0 pg/mL | TNF ([2]; Medium, test compound 1 μg/ml, Table 16): 0 pg/mL | TNF ([2]; Medium, test compound 10 μg/ml, Table 16): 0 pg/mL | TNF ([2]; Medium, test compound 40 μg/ml, Table 16): 0 pg/mL | TNF ([2]; Medium, treatment 1 μg/ml, Table 21): 3 pg/mL | TNF ([2]; Medium, treatment 10 μg/ml, Table 21): 2 pg/mL | TNF ([2]; Medium, treatment 100 μg/ml, Table 21): 2 pg/mL | TNF ([2]; PBMC stimulated with Pam3CSK4 (TLR2-TLR1 ligand), results not shown): able to downregulate TNF | TNF ([2]; PGN 40 μg/ml, hBD2 1 μg/ml, Table 9): 809.9 pg/mL | TNF ([2]; PGN 40 μg/ml, hBD2 10 μg/ml, Table 9): 362.0 pg/mL | TNF ([2]; PGN 40 μg/ml, hBD2 100 μg/ml, Table 9): 274.9 pg/mL | Viability, Alamar Blue (PBMC; LPS 0.6 ng/ml, hBD2 1 μg/ml): 4230588 RFU | Viability, Alamar Blue (PBMC; LPS 0.6 ng/ml, hBD2 10 μg/ml): 4664362 RFU | Viability, Alamar Blue (PBMC; LPS 0.6 ng/ml, hBD2 100 μg/ml): 4831188 RFU | Viability, Alamar Blue (PBMC; LPS 20 ng/ml, hBD2 1 μg/ml): 4561739 RFU | Viability, Alamar Blue (PBMC; LPS 20 ng/ml, hBD2 10 μg/ml): 4623818 RFU | Viability, Alamar Blue (PBMC; LPS 20 ng/ml, hBD2 100 μg/ml): 4765256 RFU | Viability, Alamar Blue (PBMC; LTA 1.25 μg/ml, hBD2 1 μg/ml): 4148294 RFU | Viability, Alamar Blue (PBMC; LTA 1.25 μg/ml, hBD2 10 μg/ml): 4677870 RFU | Viability, Alamar Blue (PBMC; LTA 1.25 μg/ml, hBD2 100 μg/ml): 4664185 RFU | Viability, Alamar Blue (PBMC; Medium, hBD2 1 μg/ml): 4064143 RFU | Viability, Alamar Blue (PBMC; Medium, hBD2 10 μg/ml): 3683369 RFU | Viability, Alamar Blue (PBMC; Medium, hBD2 100 μg/ml): 3950053 RFU | cytotoxic effect on the cells (PBMC; human PBMC, MTS and Alamar Blue, Tables 4 and 5): no cytotoxic effect | IL-1β ([3]; LPS 0.6 ng/ml, hBD2 1 μg/ml): 0.237 ng/mL | IL-1β ([3]; LPS 0.6 ng/ml, hBD2 10 μg/ml): 0.268 ng/mL | IL-1β ([3]; LPS 0.6 ng/ml, hBD2 100 μg/ml): 0.275 ng/mL | IL-1β ([3]; LPS 20 ng/ml, hBD2 1 μg/ml): 0.638 ng/mL | IL-1β ([3]; LPS 20 ng/ml, hBD2 10 μg/ml): 0.354 ng/mL | IL-1β ([3]; LPS 20 ng/ml, hBD2 100 μg/ml): 0.395 ng/mL | IL-1β ([3]; LTA 1.25 μg/ml, hBD2 1 μg/ml): 0.224 ng/mL | IL-1β ([3]; LTA 1.25 μg/ml, hBD2 10 μg/ml): 0.193 ng/mL | IL-1β ([3]; LTA 1.25 μg/ml, hBD2 100 μg/ml): 0.281 ng/mL

From patent publication US20100016232A1, “Treatment Of Inflammatory Diseases With Mammal Beta Defensins” (Novozymes A/S, priority 2008, published 2010)
